What all share (format): cell-based
In experiment [1] the test system is Acinetobacter baumannii SR24396. Briefly: Minimum Inhibitory Concentration (MIC), agar plate incubation, Japan Society for Chemotherapy standard method. How it is done: (§1) The antimicrobial activity in vitro of the present compound (I) was determined.
(§2) Measurement of Minimum Inhibitory Concentration (MIC, μg/ml) was conducted according to the standard method of the Japan Society for Chemotherapy and the amount of bacteria for inoculation was 1000 cfu/spot, and sensitive disc medium was used as the test medium, and conducted using agar plate incubation.
(§3) In the tables, the unit of the values of inhibitory activity is μg/ml.

The subject of experiment [2] is Klebsiella pneumoniae ATCC 700603. The experiment is described as above. The protocol: as §1, §2, §3
Experiment [3] relates to Pseudomonas aeruginosa SR24. The description is as above. The protocol: as §1, §2, §3
The test system of experiment [4] is Pseudomonas aeruginosa SR27060. The experiment is described as above. How it is done:
as §1, §2, §3

Experiment [5] concerns Stenotrophomonas maltophilia SR21970. Briefly: Minimum Inhibitory Concentration (MIC), agar plate incubation, CLSI method. The protocol:
as §1
Measurement of Minimum Inhibitory Concentration (MIC, μg/ml) was conducted according to the CLSI (Clinical and Laboratory Standards Institute) and the amount of bacteria for inoculation was 10000 cfu/spot, and Mueller-Hinton agar medium was used as the test medium, and conducted using agar plate incubation.
as §3

[6] abbreviates: Acinetobacter baumannii SR24396, no enzyme, 1000 cfu/spot, sensitive disc medium.
The mark [7] stands for this setting: Klebsiella pneumoniae ATCC 700603, SHV-18, ESBL producer strain, 1000 cfu/spot, sensitive disc medium.
The mark [8] stands for this setting: Pseudomonas aeruginosa SR27060, IMP-1, MBL producer strain (carbapenem resistant strain), 1000 cfu/spot, sensitive disc medium.
The mark [9] stands for this setting: Stenotrophomonas maltophilia SR21970, L-1, MBL producer strain (carbapenem resistant strain), 10000 cfu/spot, Mueller-Hinton agar medium.
[10] abbreviates: Acinetobacter baumannii SR24396, no enzyme, 1000 cfu/spot, sensitive disc medium, read-out: Minimum Inhibitory Concentration (MIC).
Setting [11] is: ATCC700603, Klebsiella pneumoniae ATCC 700603, SHV-18, ESBL producer strain, 1000 cfu/spot, sensitive disc medium, read-out: Minimum Inhibitory Concentration (MIC).
The mark [12] stands for this setting: Pseudomonas aeruginosa SR24, no enzyme, ceftazidime sensitive strain, 1000 cfu/spot, sensitive disc medium, read-out: Minimum Inhibitory Concentration (MIC).
Where [13] appears, read: Pseudomonas aeruginosa SR27060, IMP-1, MBL producer strain (carbapenem resistant strain), 1000 cfu/spot, sensitive disc medium, read-out: Minimum Inhibitory Concentration (MIC).
The mark [14] stands for this setting: Stenotrophomonas maltophilia SR21970, L-1, MBL producer strain (carbapenem resistant strain), 10000 cfu/spot, Mueller-Hinton agar medium, read-out: Minimum Inhibitory Concentration (MIC).
Setting [15] is: Pseudomonas aeruginosa SR24, no enzyme, ceftazidime sensitive strain, 1000 cfu/spot, sensitive disc medium.

Converted amounts (≈) assume the structure as drawn. Read-outs that look alike come from different tables or passages of the source.

In the case of `CC(C)(O/N=C(\C(=O)N[C@@H]1C(=O)N2C(C(=O)O)=C(C[N+]34CCCC3(CNC(=O)c3ccc(O)c(O)c3Cl)CCC4)CS[C@H]12)c1csc(N)n1)C(=O)[O-]` (some centres unmarked) [III-5], the MIC came to 0.25 µg/mL (≈ 0.321 µM) in experiment [1] (Acinetobacter baumannii, SR24396, read-out: Minimum Inhibitory Concentration (MIC)); 0.125 µg/mL (≈ 0.161 µM) in experiment [2] (Klebsiella pneumoniae, ATCC700603, read-out: Minimum Inhibitory Concentration (MIC)); 0.125 µg/mL (≈ 0.161 µM) in experiment [3] (Pseudomonas aeruginosa, SR24, read-out: Minimum Inhibitory Concentration (MIC)); 0.5 µg/mL (≈ 0.642 µM) in experiment [4] (Pseudomonas aeruginosa, SR27060, read-out: Minimum Inhibitory Concentration (MIC)); 0.25 µg/mL (≈ 0.321 µM) in experiment [5] (Stenotrophomonas maltophilia, SR21970, read-out: Minimum Inhibitory Concentration (MIC)).
As to `C[N+]1(CC2=C(C(=O)[O-])N3C(=O)C(NC(=O)C(=NOC(CC(=O)O)C(=O)[O-])c4csc(N)n4)C3SC2)C2CCC1CC(NC(=O)c1cc(O)c(O)cc1Cl)C2.[Na+]` (centres unmarked) [II-56], the “Minimum Inhibitory Concentration (MIC)” value in experiment [1] (setting [6]) is 0.25 µg/mL; in experiment [2] (setting [7]), 0.25 µg/mL; in experiment [4] (setting [8]) it was 0.5 µg/mL; in experiment [5] (setting [9]), 0.5 µg/mL.
As for `CC(C)(O/N=C(\C(=O)N[C@@H]1C(=O)N2C(C(=O)[O-])=C(C[N@+]34CC[C@H](C3)N(C(=O)c3ccc(O)c(O)c3Cl)CC4)CS[C@H]12)c1csc(N)n1)C(=O)[O-].[Na+]` [Compound I-6], the MIC in experiment [1] (setting [10]) was found to be 0.125 µg/mL; in experiment [2] (setting [11]), 1 µg/mL; in experiment [3] (setting [12]) it was 0.063 µg/mL; in experiment [4] (setting [13]) it was 0.5 µg/mL; in experiment [5] (setting [14]), 1 µg/mL.
For the compound `CC(C)(O/N=C(\C(=O)N[C@@H]1C(=O)N2C(C(=O)O)=C(C[N+]3(C)[C@@H]4CC[C@H]3C[C@@H](NC(=O)c3ccc(O)c(O)c3Cl)C4)CS[C@H]12)c1nsc(N)n1)C(=O)[O-]` (some centres unmarked) [II-63], the MIC amounted to 0.125 µg/mL (≈ 0.16 µM) in experiment [1] (setting [10]); 1 µg/mL (≈ 1.28 µM) in experiment [2] (setting [11]); 0.063 µg/mL (≈ 0.0808 µM) in experiment [3] (setting [12]); 0.5 µg/mL (≈ 0.642 µM) in experiment [4] (setting [13]); 0.5 µg/mL (≈ 0.642 µM) in experiment [5] (setting [14]).
In the case of `CC(C)(O/N=C(\C(=O)N[C@@H]1C(=O)N2C(C(=O)[O-])=C(C[N+]34CCC(CC3)N(C(=O)c3ccc(O)c(O)c3Cl)CC4)CS[C@H]12)c1nsc(N)n1)C(=O)[O-].[Na+]` [Compound I-34], the “Minimum Inhibitory Concentration (MIC)” value in experiment [1] (setting [6]) turned out to be 0.125 µg/mL; in experiment [2] (setting [7]), 0.5 µg/mL; in experiment [3] (setting [15]), 0.063 µg/mL; in experiment [4] (setting [8]), 0.5 µg/mL; in experiment [5] (setting [9]), 0.5 µg/mL.
Turning to `CC(C)(O/N=C(\C(=O)N[C@@H]1C(=O)N2C(C(=O)O)=C(C[N+]3(CCNC(=O)c4ccc(O)c(O)c4F)CCCC3)CS[C@H]12)c1csc(N)n1)C(=O)[O-]` [II-29], the MIC in experiment [1] (setting [10]) came to 0.25 µg/mL (≈ 0.34 µM); in experiment [2] (setting [11]), 0.125 µg/mL (≈ 0.17 µM); in experiment [3] (setting [12]), 0.125 µg/mL (≈ 0.17 µM); in experiment [4] (setting [13]) it was 0.5 µg/mL (≈ 0.68 µM); in experiment [5] (setting [14]), 0.5 µg/mL (≈ 0.68 µM).
With `C[C@@H](O/N=C(\C(=O)N[C@@H]1C(=O)N2C(C(=O)O)=C(C[N+]34CCC[C@H]3CN(C(=O)c3ccc(O)c(O)c3Cl)CC4)CS[C@H]12)c1csc(N)n1)C(=O)[O-]` (some centres unmarked) [Compound I-63], the MIC stood at 0.25 µg/mL (≈ 0.333 µM) in experiment [1] (setting [10]); 1 µg/mL (≈ 1.33 µM) in experiment [2] (setting [11]); 0.063 µg/mL (≈ 0.084 µM) in experiment [3] (setting [12]); 0.5 µg/mL (≈ 0.666 µM) in experiment [4] (setting [13]); 0.5 µg/mL (≈ 0.666 µM) in experiment [5] (setting [14]).
Take `CC(C)(O/N=C(\C(=O)N[C@@H]1C(=O)N2C(C(=O)[O-])=C(C[N+](C)(C)C3CCN(C(=O)c4ccc(O)c(O)c4Cl)CC3)CS[C@H]12)c1csc(N)n1)C(=O)[O-].[Na+]` [Compound I-21]: the “Minimum Inhibitory Concentration (MIC)” value in experiment [1] (setting [6]) came to 0.125 µg/mL; in experiment [2] (setting [7]), 0.5 µg/mL; in experiment [3] (setting [15]), 0.125 µg/mL; in experiment [4] (setting [8]), 1 µg/mL; in experiment [5] (setting [9]), 1 µg/mL.
With `CC(C)(ON=C(C(=O)NC1C(=O)N2C(C(=O)[O-])=C(C[N+]34CCCC3CN(C(=O)c3ccc(O)c(O)c3Cl)CC4)CSC12)c1csc(N)n1)C(=O)[O-].[Na+]` (centres unmarked) [Compound I-15], the “Minimum Inhibitory Concentration (MIC)” value in experiment [1] (setting [6]) amounted to 0.25 µg/mL; in experiment [2] (setting [7]), 0.25 µg/mL; in experiment [3] (setting [15]) it was 0.063 µg/mL; in experiment [4] (setting [8]), 0.5 µg/mL; in experiment [5] (setting [9]), 1 µg/mL.

These data come from patent US9145425B2, “Cephem compound having catechol group” (SHIONOGI & CO., LTD., priority 2010, dated 2015).
